Assay results taken from ChEMBL document CHEMBL1145108, “Fragment screening and assembly: a highly efficient approach to a selective and cell active protein tyrosine phosphatase 1B inhibitor” (J Med Chem, 2003).
pKd, pKi: −log10 of the molar value.

Assays:
[1] = molecular target: T1, Tyrosine-protein phosphatase non-receptor type 1 (Homo sapiens, UniProt P18031); experiment: Dissociation constant against Protein-tyrosine phosphatase 1B receptor was determined
T1 sequence (P18031 whole entry): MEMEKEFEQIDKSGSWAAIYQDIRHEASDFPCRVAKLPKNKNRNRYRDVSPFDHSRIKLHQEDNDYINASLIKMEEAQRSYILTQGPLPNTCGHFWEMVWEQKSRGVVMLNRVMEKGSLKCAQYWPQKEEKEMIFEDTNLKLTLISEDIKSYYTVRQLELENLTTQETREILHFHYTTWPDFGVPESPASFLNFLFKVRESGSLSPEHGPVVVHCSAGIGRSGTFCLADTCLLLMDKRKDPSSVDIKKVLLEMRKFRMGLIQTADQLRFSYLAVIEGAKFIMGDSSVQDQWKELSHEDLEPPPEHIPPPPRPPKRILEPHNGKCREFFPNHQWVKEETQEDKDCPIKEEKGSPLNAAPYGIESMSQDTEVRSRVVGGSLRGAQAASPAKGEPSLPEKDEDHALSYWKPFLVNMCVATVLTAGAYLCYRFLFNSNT

[2] = molecular target: Tyrosine-protein phosphatase non-receptor type 2 (Homo sapiens, UniProt P17706); experiment: Inhibitory constant of compound against T cell protein tyrosine phosphatase was determined; format: cell-based
Chain of Tyrosine-protein phosphatase non-receptor type 2 (P17706 whole entry, looked up): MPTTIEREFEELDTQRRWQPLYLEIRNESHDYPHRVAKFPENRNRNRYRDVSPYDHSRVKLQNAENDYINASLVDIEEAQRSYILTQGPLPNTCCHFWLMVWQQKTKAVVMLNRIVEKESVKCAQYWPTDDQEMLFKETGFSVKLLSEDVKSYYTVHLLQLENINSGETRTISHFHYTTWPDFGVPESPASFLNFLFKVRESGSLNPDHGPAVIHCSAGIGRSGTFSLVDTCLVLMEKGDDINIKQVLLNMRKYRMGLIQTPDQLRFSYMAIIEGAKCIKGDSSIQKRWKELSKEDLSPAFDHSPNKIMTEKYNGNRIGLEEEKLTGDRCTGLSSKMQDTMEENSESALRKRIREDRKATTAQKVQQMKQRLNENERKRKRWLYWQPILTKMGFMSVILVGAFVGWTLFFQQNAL

[3] = molecular target: T1, Tyrosine-protein phosphatase non-receptor type 1
Description: Binding affinity against protein tyrosine phosphatase PTB1B

pKd [1] | pKi [2] | pKi [3] | SMILES
3.10 |  |  | O=C(O)c1cc(-c2ccc(Br)cc2)on1
 | 3.20 | 3.83 | CCCC(=O)Nc1cccc(-c2cc(C(=O)O)no2)c1
